The subject of this test is nude mice, LX-1 lung xenograft intrarenal, tumor weight T/C. Description: NCI In Vivo Anticancer Drug Screen. Data for tumor model Human Lung LX-1 Xenograft (intrarenal inoculation) in NU/NU Swiss (nude) mice. As to conditions: endpoint: mean tumor weight change, higher = larger tumour. The procedure, abridged:
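Readout: T/C, i.e. treated-group tumor measurement over vehicle-control measurement. Mice bearing transplantable tumors were dosed with compound or vehicle.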

Where [1] appears, read: dose: 6.25 mg/kg/injection, schedule: Q01DX010 (sc), vehicle: saline.
Setting [2] is: dose: 100.0 mg/kg/injection, schedule: Q04DX003 (sc), vehicle: saline.
The mark [3] stands for this setting: dose: 25.0 mg/kg/injection, schedule: Q01DX010 (sc), vehicle: saline.
[4] abbreviates: dose: 12.5 mg/kg/injection, schedule: Q04DX003 (sc), vehicle: saline.
[5] abbreviates: dose: 25.0 mg/kg/injection, schedule: Q04DX003 (sc), vehicle: saline.
[6] abbreviates: dose: 300.0 mg/kg/injection, schedule: Q04DX003 (sc), vehicle: Klucel (hydroxypropylcellulose) (HPC).
The mark [7] stands for this setting: dose: 600.0 mg/kg/injection, schedule: Q04DX003 (sc), vehicle: Klucel (hydroxypropylcellulose) (HPC).
Setting [8] is: dose: 1200.0 mg/kg/injection, schedule: Q04DX003 (sc), vehicle: Klucel (hydroxypropylcellulose) (HPC).
Where [9] appears, read: dose: 2400.0 mg/kg/injection, schedule: Q04DX003 (sc), vehicle: Klucel (hydroxypropylcellulose) (HPC).

Where “and” joins values, the source holds several entries; their conditions need not be identical. Equal values may be shown once. Results filed as inconclusive are left out.

As for `O=[N+]([O-])c1ccc(-n2[nH]nnc2=S)cc1`, the T/C is, setting by setting: (dose: 50.0 mg/kg/injection, schedule: Q04DX003 (sc), vehicle: Klucel (hydroxypropylcellulose) (HPC)) 92 % of control; (dose: 100.0 mg/kg/injection, schedule: Q04DX003 (sc), vehicle: Klucel (hydroxypropylcellulose) (HPC)) 84 % of control; (dose: 200.0 mg/kg/injection, schedule: Q04DX003 (sc), vehicle: Klucel (hydroxypropylcellulose) (HPC)) 95 % of control; (dose: 400.0 mg/kg/injection, schedule: Q04DX003 (sc), vehicle: Klucel (hydroxypropylcellulose) (HPC)) 59 % of control.
For the compound `O=P1(N(CCCl)CCCl)NCCCO1` (stereo not drawn), the T/C was 76 % of control (dose: 3.13 mg/kg/injection, schedule: Q01DX010 (sc), vehicle: saline); 48 % of control (dose: 6.25 mg/kg/injection, schedule: Q01DX010 (ip), vehicle: saline); 85 % of control under setting [1]; 29 % of control (dose: 12.5 mg/kg/injection, schedule: Q01DX010 (ip), vehicle: saline); 151 % of control (dose: 20.8 mg/kg/injection, schedule: Q04DX003 (ip), vehicle: saline); 56 % of control (dose: 25.0 mg/kg/injection, schedule: Q01DX010 (ip), vehicle: saline). Further, the T/C runs as follows: (dose: 41.66 mg/kg/injection, schedule: Q04DX003 (ip), vehicle: saline) 51 % of control; (dose: 41.66 mg/kg/injection, schedule: Q04DX003 (sc), vehicle: saline) 44 % of control; (dose: 50.0 mg/kg/injection, schedule: Q04DX003 (sc), vehicle: suspension in saline) 87 % of control and 92 % of control; (dose: 83.33 mg/kg/injection, schedule: Q04DX003 (sc), vehicle: saline) 20 % of control; under setting [2], 28 % of control; (dose: 100.0 mg/kg/injection, schedule: Q04DX003 (sc), vehicle: suspension in saline) 70 % of control and 90 % of control. The T/C was 13 % of control (dose: 200.0 mg/kg/injection, schedule: Q04DX003 (sc), vehicle: saline) and 42 % of control (dose: 200.0 mg/kg/injection, schedule: Q04DX003 (sc), vehicle: suspension in saline).
Regarding `C=CS(=O)(=O)c1ccccc1`, the T/C is, setting by setting: under setting [3], 57 % of control; (dose: 50.0 mg/kg/injection, schedule: Q01DX010 (sc), vehicle: saline) 65 % of control; (dose: 100.0 mg/kg/injection, schedule: Q01DX010 (sc), vehicle: saline) 29 % of control.
In the case of `C=C(OP(=O)(OC)OC)Sc1ccccc1C`, the T/C reads like this: (dose: 100.0 micrograms/kg/injection, schedule: Q04DX003 (sc), vehicle: Klucel (hydroxypropylcellulose) (HPC)) 68 % of control; (dose: 200.0 micrograms/kg/injection, schedule: Q04DX003 (sc), vehicle: Klucel (hydroxypropylcellulose) (HPC)) 68 % of control; (dose: 400.0 micrograms/kg/injection, schedule: Q04DX003 (sc), vehicle: Klucel (hydroxypropylcellulose) (HPC)) 67 % of control; (dose: 800.0 micrograms/kg/injection, schedule: Q04DX003 (sc), vehicle: Klucel (hydroxypropylcellulose) (HPC)) 79 % of control.
Take `CC(C)[NH-].CC(C)[NH-].[Cl][Pt+2][Cl]`: the T/C is, setting by setting: (dose: 25.0 mg/kg/injection, schedule: Q01DX010 (sc), vehicle: dextrose) 48 % of control; (dose: 50.0 mg/kg/injection, schedule: Q01DX010 (sc), vehicle: dextrose) 50 % of control; (dose: 100.0 mg/kg/injection, schedule: Q01DX010 (sc), vehicle: dextrose) 71 % of control.
Take `CCCCCC[C@@H](O)C/C=C\CCCCCCCC(=O)OCCO`: the T/C is, setting by setting: (dose: 300.0 mg/kg/injection, schedule: Q04DX003 (sc), vehicle: saline) 69 % of control; (dose: 600.0 mg/kg/injection, schedule: Q04DX003 (sc), vehicle: saline) 90 % of control; (dose: 1200.0 mg/kg/injection, schedule: Q04DX003 (sc), vehicle: saline) 28 % of control; (dose: 2400.0 mg/kg/injection, schedule: Q04DX003 (sc), vehicle: saline) 50 % of control.
As to `O=C1C=C2C(=CCOC2O)O1` (stereo not drawn), the T/C (dose: 1.0 mg/kg/injection, schedule: Q04DX003 (sc), vehicle: Klucel (hydroxypropylcellulose) (HPC)) is 158 % of control; the T/C (dose: 2.0 mg/kg/injection, schedule: Q04DX003 (sc), vehicle: Klucel (hydroxypropylcellulose) (HPC)) was 92 % of control; the T/C (dose: 8.0 mg/kg/injection, schedule: Q04DX003 (sc), vehicle: Klucel (hydroxypropylcellulose) (HPC)) is 151 % of control.
As to `ClCCCN1CCCCC1CCl` (stereo not drawn), the T/C was 88 % of control under setting [4] and 71 % of control under setting [5].
In the case of `C=C1C(=O)C23[C@H](O)C1CC[C@H]2[C@]12COC3(O)[C@@H](O)[C@@H]1C(C)(C)CC[C@@H]2O`, the T/C is 105 % of control (dose: 18.75 mg/kg/injection, schedule: Q04DX003 (sc), vehicle: Klucel (hydroxypropylcellulose) (HPC)) and 49 % of control (dose: 37.5 mg/kg/injection, schedule: Q04DX003 (sc), vehicle: Klucel (hydroxypropylcellulose) (HPC)).
With `Oc1c(Cl)cc(C(c2cc(Cl)c(O)c(Cl)c2)C(c2cc(Cl)c(O)c(Cl)c2)c2cc(Cl)c(O)c(Cl)c2)cc1Cl`, the T/C under setting [6] was 88 % of control, the T/C under setting [7] was 66 % of control, the T/C under setting [8] was 55 % of control and the T/C under setting [9] was 66 % of control.
`CCC1(O)CC2CN(CCc3c([nH]c4ccccc34)C(C(=O)OC)(c3cc4c(cc3OC)N(C)C3C(O)(C(N)=O)C(O)C5(CC)C=CCN6CCC43C65)C2)C1` (stereo not drawn) (tested in a mixture with another compound): the T/C (dose: 1.5 mg/kg/injection, schedule: Q04DX003 (sc), vehicle: water) is 28 % of control.
On to `CO[C@H]1C[C@](C)(O)Cc2cc3c(c(O)c21)C(=O)c1c(O)cc2c(c1C3=O)O[C@@H]1O[C@@]2(C)[C@H](O)[C@@H](N(C)C)[C@@H]1O`, for which the T/C reads like this: (dose: 3.12 mg/kg/injection, schedule: Q01DX010 (sc), vehicle: other) 68 % of control; (dose: 6.25 mg/kg/injection, schedule: Q01DX010 (sc), vehicle: other) 63 % of control and 70 % of control; (dose: 12.5 mg/kg/injection, schedule: Q01DX010 (sc), vehicle: other) 23 % of control.
For `CC[C@](O)(C(=O)O)c1cc2n(c(=O)c1CO)Cc1cc3ccccc3nc1-2`, the T/C reads like this: (dose: 16.0 mg/kg/injection, schedule: Q04DX003 (sc), vehicle: saline) -5 % of control; (dose: 31.25 mg/kg/injection, schedule: Q04DX003 (sc), vehicle: saline) 25 % of control; (dose: 62.5 mg/kg/injection, schedule: Q04DX003 (sc), vehicle: saline) 1 % of control; (dose: 125.0 mg/kg/injection, schedule: Q04DX003 (sc), vehicle: saline) -48 % of control.
As for `CC1(C)OCC(CO)(Nc2nc(N3CC3)nc(N3CC3)n2)CO1`, the T/C (dose: 1.25 mg/kg/injection, schedule: Q01DX010 (sc), vehicle: saline) is 74 % of control.
With `COc1cccc2c1C(=O)c1c(O)c3c(c(O)c1C2=O)C[C@H](O)C[C@@H]3OC1CC(N)C(O)C(C)O1` (stereo partly drawn), the T/C by setting is: under setting [1], 25 % of control; (dose: 12.5 mg/kg/injection, schedule: Q01DX010 (sc), vehicle: saline) 336 % of control; under setting [3], 101 % of control.
`O=[n+]1c2ccccc2n([O-])c2ccccc21.[Cl][Ni][Cl]`: the T/C runs as follows: (dose: 18.75 mg/kg/injection, schedule: Q04DX003 (sc), vehicle: saline with Tween-80) 122 % of control; (dose: 75.0 mg/kg/injection, schedule: Q04DX003 (sc), vehicle: saline with Tween-80) 150 % of control and 163 % of control; (dose: 150.0 mg/kg/injection, schedule: Q04DX003 (sc), vehicle: saline with Tween-80) 226 % of control.
Take `CN(N=O)C(N)=O`: the T/C (dose: 12.5 mg/kg/injection, schedule: Q01DX010 (sc), vehicle: saline with Tween-80) is -64 % of control; the T/C under setting [4] was 19 % of control; the T/C (dose: 25.0 mg/kg/injection, schedule: Q01DX010 (sc), vehicle: saline with Tween-80) is -69 % of control; the T/C under setting [5] is 7 % of control; the T/C (dose: 50.0 mg/kg/injection, schedule: Q04DX003 (sc), vehicle: saline) is 12 % of control; the T/C under setting [2] is 1 % of control.
For `CC1=NNC(=O)C1CCO` (stereo not drawn), the T/C by setting is: under setting [6], 112 % of control; under setting [7], 115 % of control; under setting [8], 82 % of control; under setting [9], 106 % of control.

Source of the values: PubChem BioAssay AID264 (DTP/NCI, 2004).
